Key:
Type in all cases: cell-based
[1] = tested on: miR-143 and miR-145 expression in HPNE-Kras^G12D cells; test: miR-143 and miR-145 expression by northern blot and qRT-PCR in HPNE-Kras^G12D cells; conditions: HPNE-Kras^G12D cells treated with inhibitor
From the text: (§1) Vista was used to generate pairwise alignments between the genomic sequence from human (May 2004 assembly) and the indicated species. The graph is a plot of nucleotide identity for a 100-bp sliding window centered at a given position. […] Expression of RNA transcripts was normalized to β-actin. FIG. 3C is a graph showing the results of a quantitative RT-PCR analysis of miR-143 and miR-145 expression in the cell lines described above. miRNA expression was normalized to 18S RNA. Error bars represent standard deviations.
(§2) U6 served as a loading control. […] Error bars represent standard deviations.
(§3) HPNE-Kras^G12D cells were infected with the anti-RREB-1 lentivirus-shRNA construct and selected in neomycin.
(§4) Kras activity leads to activation of both the Map Kinase (MAPK) cascade (also known as the RAF/MEK/MAPK pathway) and the phosphatidylinositol-3 kinase (PI3K) pathway. In order to determine which of these downstream effector pathways is involved in the Kras-RREB1-miR-143/145 pathway, levels of miR-143 and miR-145 were examined in HPNE-Kras^G12D cells treated with specific inhibitors that target MAPK and PI3K.

[2] = tested on: miR-143/145 primary transcript in HPNE-Kras^G12D cells; test: quantitative RT-PCR of miR-143/145 primary transcript in HPNE-Kras^G12D cells; conditions: HPNE-Kras^G12D cells treated with inhibitor; qRT-PCR
From the text: as §1, §2, §3, §4

[3] = tested on: RREB-1 expression in HPNE-Kras^G12D cells; test: qPCR of RREB-1 expression in HPNE-Kras^G12D cells; conditions: HPNE-Kras^G12D cells treated with inhibitor
From the text: as §1, §2, §3, §4

## O=c1cc(N2CCOCC2)oc2c(-c3ccccc3)cccc12 [LY294002]
[1]
  miR-143 and miR-145 expression: no effect

## N#CC(=C(/N)Sc1ccccc1N)/C(C#N)=C(\N)Sc1ccccc1N [U0126, 1,4-diamino-2,3-dicyano-1,4-bis(2-aminophenylthio)butadiene]
[1]
  miR-143 and miR-145 expression: significant increase
[2]
  level of the miR-143/145 primary transcript: increased
[3]
  RREB-1 expression: decreased
